From patent publication US6372792B1, “Method for treating anxiety, anxiety disorders and insomnia” (priority 1996, dated 2002)

What was measured:
Type in all cases: in vivo, human
[1] = system: chronic severe generalized anxiety disorder with marked insomnia and depression; test: Case History 1: patient treated with gabapentin; details: initiated at a low dose
Procedure: The patient is a retired patient. […] In their medical history, there is a cervical laminectomy (1988). They report residual pain and weakness in the right arm and right leg and chronic neck pain. They have a history of three months of depression with no treatment (1989) and a history of chronic severe generalized anxiety disorder.
In December 1994, the patient had been taking a benzodiazepine, clonazepam 2.5 mg/day, for the last five years when their anxiety and depression became much worse. Anxiety was associated with marked insomnia and significant situational stressors (financial and marital). […] Patient is now functional for the first time in many years. Improvement continues as of this day. […] Improvement persists.

[2] = system: panic attacks and anxiety disorder; test: Case History 3: patient treated with gabapentin; details: for adverse effect: human, in vivo
Procedure: A person is a single who is working as a freelance writer. […] They were hospitalized because of severe depression and a suicide attempt by drug overdose. The patient has taken lithium since 1973. They have also had panic attacks since 1978.
In January 1994, the patient was depressed and valproic acid was initiated with lithium and clonazepam. […] Gabapentin 300 mg BID up to 300 mg TID was initiated in their treatment.

[3] = system: obsessive compulsive disorder (OCD), anxiety, paranoid delusions; test: Case History 5: patient treated with gabapentin
Source text: The patient is a single person who is still studying at University. Their medical history is unremarkable. The patient was first seen by a psychiatrist and followed for obsessive compulsive disorder (OCD) in the United Emirates; the patient tended toward isolativeness. Also, they developed a tic disorder and complained of anxiety.
In February 1994, the patient developed intense paranoid ideation and became more withdrawn. Over the previous two years, the patient had suffered from paranoid delusions and auditory hallucinations. They stopped taking their neuroleptic medication in mid-December while they were a University student. They were admitted as an inpatient in March 1994. […] The patient was discharged with clozapine and lorazepam. In June, the patient was referred for Follow-Up where an anticonvulsant drug, valproic acid was added to potentiate clozapine, but discontinued in August 1994.
In February 1995, gabapentin was added to the patient's treatment. […] Currently, the patient takes clozpine 125 mg BID, […], gabapentin 500 mg HS and procyclidine 5 mg BID.

[4] = system: fast cycling manic depressive illness with anxiety associated with depression; test: Case History 2: patient treated with gabapentin; details: June to December 1992
Procedure: A person is a retired patient with a family history of bipolar affective illness. The patient has been treated for manic-depressive illness since they experienced their first depressive episode and was hospitalized several times for mania and depression.
[…]), the patient was hospitalized for an episode of acute mania. After that, they were treated with lithium, tryptophan, nicotinamide, clonazepam, Premarin®, Provera® and Overal®. The patient was re-hospitalized for a manic episode […] (1982). They have been treated with various psychotropic drugs, especially: lithium, tryptophan, and clonazepam. Lithium was discontinued in October 1983 until 1985. They were given tryptophan, lecithin and female hormones for control of a severe rapid-cycling bipolar disorder. Fluoxetine, as well as, antiepileptics (carbamazepine and valproic acid) were also added to their treatment.
Due to the patient's fast cycling manic depressive illness, their medication is regularly adjusted. Since 1991 magnesium was added to their regular medication. […] In April 1993, risperidone was initiated and in March 1994 lithium was discontinued. They are currently treated with risperidone, gabapentin 1800 mg QD (initiated in August 1994), clonazepam and ritanserin was recently added to their treatment in an attempt to improve their mood. They also take magnesium and lecithin.

In the case of CNCCC(Oc1ccc(C(F)(F)F)cc1)c1ccccc1 (stereo not drawn) [Fluoxetine], the “clinical response (anxiety and depression)” value [1] is reported as “made the patient worse”.
For NCC1(CC(=O)O)CCCCC1 [gabapentin, (1-aminomethyl)-1-cyclohexaneacetic acid], the adverse effect [2] was “the patient complained of sedation” and the adverse effect ([3]; during the increase of gabapentin) was “dizziness during the increase of gabapentin but this subsided”.
For CCCC(CCC)C(=O)O [valproic acid], the adverse effect [4] was “the patient was losing hair”, the adverse effect [2] was “they were losing their hair” and the depression ([2]; initiated with lithium and clonazepam, two weeks later) was “the patient improved”.
With OC(CCN1CCCC1)(c1ccccc1)C1CCCCC1 (stereo not drawn) [procyclidine] the akathisia ([3]; procyclidine 5 mg BID) was “they improved with this medication”.
For CN[C@H]1CC[C@@H](c2ccc(Cl)c(Cl)c2)c2ccccc21 [sertraline], the “clinical response (anxiety and depression)” value [1] was “made the patient worse”.
For Cc1nc2n(c(=O)c1CCN1CCC(c3noc4cc(F)ccc34)CC1)CCCC2 [risperidone], the “psychotic symptoms (paranoid delusions, auditory hallucinations)” value ([3]; inpatient, March 1994) was “did not improve”.
